Laboratory results from patent US20040067998A1, “Antifungal and/or antiparasitic pharmaceutical composition and novel indole derivatives as active principle of such a composition” (priority 2003, published 2004).
In brackets after ≈: the same amount, converted by molar mass. Several values for one entry are separate records, joined by “and”; a condition that tells them apart may be missing. Equal entries are not always repeated. Where two headings read alike, the source gives them in different places.

Tests used:
[1] = tested on: promastigote stage of Leishmania mexicana; assay: Antiparasitic activity on the promastigote form of Leishmania (MTT); assay type: cell-based
[2] = tested on: Aspergillus fumigatus (strain n°AF 980003); assay: Antifungal activity on a clinical strain of Aspergillus fumigatus (Alamar Blue microplate test); assay type: cell-based; settings: strain AF980003; for MIC: Aspergillus fumigatus, read-out: CMI or CI80 Aspergillus fumigatus (AF980003)
[3] = tested on: Candida albicans (strain n° CA980001); assay: Antifungal activity on a clinical strain of Candida albicans (MTT colorimetric microplate test); assay type: cell-based; settings: for MIC / CMI or CI80 Candida albicans (CA980001): strain CA980001; for MIC: read-out: CMI or CI80 Candida albicans (CA980001); for activity of inhibition of Candida albicans (in words): summary of Tables 27 to 40
[4] = tested on: Candida parapsilosis (2 strains); assay: Antifungal activity in vitro on clinical strains of Candida: parapsilosis (2 strains); assay type: cell-based
[5] = tested on: Candida albicans (CA98001); assay: Antifungal activity in vivo on a model of disseminated candidiasis; design: species or system female Swiss mice
[6] = tested on: intracellular amastigote form of Leishmania mexicana; assay: Anti-leishmanian activity on the amastigote form in peritoneal macrophages of BALB/c mice; assay type: cell-based; settings: for IC50: Leishmania mexicana, Peritoneal macrophage, read-out: CI50 Intracellular amastigotes
[7] = tested on: Candida lusitaniae (1 strain); assay: Antifungal activity in vitro on clinical strains of Candida: lusitaniae (1 strain); assay type: cell-based; settings: for CI80 on clinical strains of Candida: strain CL980001 (Candida lusitaniae)
[8] = tested on: Candida krusei (4 strains); assay: Antifungal activity in vitro on clinical strains of Candida: krusei (4 strains); assay type: cell-based
[9] = tested on: Candida albicans (4 strains); assay: Antifungal activity in vitro on clinical strains of Candida: albicans (4 strains); assay type: cell-based; settings: for activity against strains of Candida albicans (in words): clinical strains
Leishmania major = assay: Anti-leishmanian activity in vivo on a model of cutaneo-mucosal and visceral leishmaniasis; design: species or system male BALB/c mice
Protocol: (1999), Croft et al. (1993) and Hill et al. (1983). The animals used (Centre d'élevage R. Janvier, Le Genest-St-France) were male BALB/c mice, aged 7 weeks at the time of inoculation of the parasites. This operation was performed in accordance with the legislation relating to animal experimentation. […] Days after the inoculation, the treatment was administered intraperitoneally for 10 days. Three weeks after the treatment, its effectiveness was determined by determining the parasite level in the liver, spleen, popliteal ganglion and the cutaneous lesion.

[10] = Leishmania mexicana; promastigotes; 36 h at 26° C., MTT; read-out: CI50 Leishmania mexicana Promastigotes
[11] = Candida albicans, 24 h at 37° C., MTT
[12] = strain CP980002 (Candida parapsilosis)
[13] = Test N°3, ketoconazole 20 mg/kg/d for 5 d
[14] = strain CK980002 (Candida krusei)
[15] = strain CK980003 (Candida krusei)
[16] = strain CK980004 (Candida krusei)
[17] = strain CA980001 (Candida albicans)
[18] = strain CP980001 (Candida parapsilosis)
[19] = promastigotes; read-out: CI50 Leishmania mexicana Promastigotes
[20] = strain CK980001 (Candida krusei)
[21] = strain CA980002 (Candida albicans)
[22] = strain CA980003 (Candida albicans)
[23] = strain CA980005 (Candida albicans)
[24] = Leishmania mexicana; read-out: CI50 Leishmania mexicana Promastigotes
[25] = compound 45 intraperitoneally for 10 days, dose not given, three weeks after treatment

Compound: CCn1cc(C(c2ccc(Cl)cc2Cl)n2cncn2)c2cc(Br)ccc21 (centres unmarked) [Cpsé 47, 5-Bromo-1-ethyl-3-[(2,4-dichlorophenyl)(1H-1,2,4-triazol-1yl)methyl]-1H-indole]
- IC50 [1, 10]: 25 µM and 8.07 µg/mL
- MIC ([2]; Alamar Blue): > 100 µM
- melting point: 124 to 126 °C
- MIC [3, 11]: > 100 µM

Compound: Clc1ccc(Cn2cc(C3(Cn4ccnc4)CCCC3)c3ccccc32)cc1 [Cpsé 63, 1-[1-(4-Chlorobenzyl)-1H-indol-3yl]-1-(1H-imidazol-1-ylmethyl)cyclopentane]
- melting point: 91 to 92 °C

Compound: CC(=O)N1CCN(c2ccc(OCC3COC(Cn4ccnc4)(c4ccc(Cl)cc4Cl)O3)cc2)CC1 (centres unmarked) [Ketoconazole, ketoconazole, reference compound]
- CI80 on clinical strains of Candida [4, 12]: <10 nM
- survival at D14 ([5]; Test N°1, ketoconazole 20 mg/kg/d for 5 d): 88%
- survival at D14 ([5]; Test N°2, ketoconazole 10 mg/kg/d for 5 d): Ketoconazole: no survival at D14.
- survival at D14 [5, 13]: 88%
- survival at D18 [5, 13]: 50%
- survival at D10 ([5]; Test N°4, ketoconazole 20 mg/kg/d for 5 d): 50%
- IC50 ([1]; Leishmania mexicana, read-out: CI50 Leishmania mexicana Promastigotes): 3 ± 0.5 µg/mL
- IC50 [6]: 1.3 ± 0.2 µg/mL (≈ 2.45 µM)
- CI80 on clinical strains of Candida [7]: <10 nM
- CI80 on clinical strains of Candida [8, 14]: 700 ± 20 nM
- CI80 on clinical strains of Candida [8, 15]: 800 ± 20 nM
- CI80 on clinical strains of Candida [8, 16]: <10 nM
- CI80 on clinical strains of Candida [9, 17]: 5 nM
- MIC ([3]; Candida albicans, 24 h): 0.0094 µM (≈ 0.005 µg/mL)
- CMI or CI80 Candida albicans (CA980001) [3]: 0.005 µg/mL

Compound: OC(Cn1ccnc1)(Cn1ccc2ccccc21)c1ccc(Cl)cc1Cl (centres unmarked) [compound 75]
- CI80 on clinical strains of Candida [4, 18]: 1000 ± 100 nM
- CI80 on clinical strains of Candida [4, 12]: 860 ± 40 nM
- activity on survival at the end of the experiment (D14) (in words) ([5]; Test N°1, 20 mg/kg/d for 5 d): not on survival at the end of the experiment
- activity on the survival at D4-D5 (in words) ([5]; Test N°1, 20 mg/kg/d for 5 d): slight activity
- survival improved compared to the control batch ([5]; Test N°1, day 8 (D8), daily dose of 20 mg/kg): 25%
- survival at D14 ([5]; Test N°2, 2 × 30 mg/kg/d for 5 d intraperitoneally): Compound 75: no survival at end of experiment (D14).
- effect of treatment on the survival of the animals (in words) ([5]; Test N°2, 2 × 30 mg/kg/d for 5 d intraperitoneally, monitored 14 days (78: from D9 to D14)): ineffective
- CI50 Leishmania mexicana Promastigotes ([1]; promastigotes): 1.47 µg/mL (≈ 3.81 µM)
- IC50 [1, 19]: 4000 nM
- CI80 on clinical strains of Candida [7]: 300 ± 100 nM
- activity against Candida krusei (in words) ([8]; clinical strains, b748: one strain): active
- CI80 on clinical strains of Candida [8, 20]: 620 ± 2 nM
- CI80 on clinical strains of Candida [8, 15]: >1000 nM
- CI80 on clinical strains of Candida [8, 16]: 4200 ± 100 nM
- CMI or CI80 Aspergillus fumigatus (AF980003) [2]: 4 ± 0 μM and 1 ± 0 μg/mL
- activity against strains of Candida albicans (in words) [9]: active
- CI80 on clinical strains of Candida [9, 17]: <1 nM
- CI80 on clinical strains of Candida [9, 21]: 650 ± 10 nM
- CI80 on clinical strains of Candida [9, 22]: 640 ± 10 nM
- CI80 on clinical strains of Candida [9, 23]: 710 ± 10 nM
- MIC [3]: <0.001 µM
- activity of inhibition of Candida albicans (in words) [3]: most active

Compound: CCN1CCc2cc(Br)cc(C(c3ccc(F)cc3)n3ccnc3)c21 (centres unmarked) [Cpsé 51, 5-Bromo-1-ethyl-7-[(4-fluorophenyl)(1H-imidazol-1-yl)methyl]indoline]
- IC50 [1, 10]: 59.2 µM and 23.8 µg/mL
- MIC ([2]; Alamar Blue): > 100 µM
- melting point: 120 to 123 °C
- MIC [3, 11]: > 100 µM

Compound: Clc1ccc(Cn2cc(CCn3ccnc3)c3ccccc32)cc1 [Cpsé 59, 1-(4-Chlorobenzyl)-3-(2-1H-imidazol-1-ylethyl)-1H-indole]
- melting point: 78 to 80 °C

Compound: OC(Cn1cncn1)(Cn1ccc2ccccc21)c1ccc(Cl)cc1Cl (centres unmarked) [Cpsé 78, 2-(2,4-Dichlorophenyl)-1-(1,2,4-1H-triazol-1-yl)-3-(indol-1-yl)propan-2-ol]
- parasite level in the kidneys compared with the control group (in words) ([5]; Test N°3, 3 × 20 mg/kg/d for 5 d intraperitoneal): significant reduction
- activity against Leishmania mexicana (in words) [1]: most active
- IC50 [1, 24]: 0.1 µg/mL and 230 nM
- reduction of the hepatic parasite level (Leishmania major; [25]): 79%
- reduction of the spleen parasite level (Leishmania major; [25]): 98.9%
- activity against the intracellular amastigote form of Leishmania (in words) [6]: very active
- IC50 ([6]; intracellular amastigote form): 1.5 ± 0.01 µg/mL (≈ 3.87 µM)
- MIC [2]: > 100 µM
- MIC ([3]; Candida albicans, 24 h): > 100 µM

Compound: CNC[C@H](O)[C@@H](O)[C@H](O)[C@H](O)CO.[O]=[Sb](=[O])[OH] [Glucantime ®, meglumine antimoniate, reference compound]
- CI50 Leishmania mexicana Promastigotes [1]: 15000 ± 260 µg/mL
- reduction of the hepatic parasite level (Leishmania major; Glucantime 10 mg/Kg/d, 10 days): 74%
- reduction of the spleen parasite level (Leishmania major; Glucantime 10 mg/Kg/d, 10 days): 82%
- IC50 on the amastigote stage of Leishmania mexicana [6]: 48.7 µg/mL

Compound: OC(Cn1ccnc1)(Cn1ccc2ccccc21)c1ccc(Cl)cc1 (centres unmarked) [compound 74]
- activity against Candida parapsilosis (in words) ([4]; clinical strains): very active
- CI80 on clinical strains of Candida [4, 18]: 690 ± 30 nM
- CI80 on clinical strains of Candida [4, 12]: 3710 ± 1246 nM
- CI50 Leishmania mexicana Promastigotes ([1]; promastigotes): 5 ± 0.2 µg/mL (≈ 14.2 µM)
- IC50 [1, 19]: 15000 ± 600 nM
- activity against Candida lusitaniae (in words) ([7]; clinical strain): very active
- CI80 on clinical strains of Candida [7]: 630 ± 10 nM
- CI80 on clinical strains of Candida [8, 20]: 59290 ± 1330 nM
- CI80 on clinical strains of Candida [8, 14]: 7740 ± 130 nM
- CI80 on clinical strains of Candida [8, 15]: >100000 nM
- CI80 on clinical strains of Candida [8, 16]: >100000 nM
- CMI or CI80 Aspergillus fumigatus (AF980003) [2]: 83 ± 4 μM and 29 ± 1 μg/mL
- activity against strains of Candida albicans (in words) [9]: very active
- CI80 on clinical strains of Candida [9, 17]: 61 ± 4 nM
- CI80 on clinical strains of Candida [9, 21]: 470 ± 17 nM
- CI80 on clinical strains of Candida [9, 22]: 70 ± 4.7 nM
- CI80 on clinical strains of Candida [9, 23]: 300 ± 24 nM
- CMI or CI80 Candida albicans (CA980001) [3]: 0.02 µg/mL
- MIC [3]: 0.07 µM (≈ 0.0246 µg/mL)
- activity of inhibition of Candida albicans (in words) [3]: most active

Compound: Brc1ccc(C(Cn2ccc3ccccc32)n2ccnc2)cc1 (centres unmarked) [Cpsé 84, 1-[2-(4-Bromophenyl)-2-(1H-imidazol-1-yl)ethyl]-1H-indole]
- activity against Leishmania mexicana (in words) [1]: most active
- IC50 [1, 24]: 0.16 µg/mL and 370 nM
- activity against the intracellular amastigote form of Leishmania (in words) [6]: very active
- IC50 ([6]; intracellular amastigote form): 3.1 ± 0.04 µg/mL (≈ 8.46 µM)
- MIC [2]: > 100 µM
- MIC ([3]; Candida albicans, 24 h): > 100 µM
